We go through three compounds from ChEMBL document CHEMBL4033766, “Discovery of the Antitumor Effects of a Porphyrazine Diol (Pz 285) in MDA-MB-231 Breast Tumor Xenograft Models in Mice” (ACS Med Chem Lett, 2017).

The test system of one assay is MDA-MB-231. In words: Antiproliferative activity against human MDA-MB-231 cells at 25 uM after 48 hrs by MTS assay relative to control. The format is functional.
The nature of assay [1]: Antitumor activity against Her2-positive human MDA-MB-231-LM24 cells xenografted in SCID-beige mouse harboring Td-tomato and Luc2 assessed as survival days at 2.5 mg/kg, iv administered every 7 days for 28 days (reference value: 9.5 days). Format: functional. (In xenograft studies the graft and the host belong to different species.)
A short description of assay [2]: Antitumor activity against Her2-positive human MDA-MB-231-LM24 cells xenografted in SCID-beige mouse harboring Td-tomato and Luc2 assessed as survival days at 1.25 mg/kg, iv administered every 7 days for 28 days (reference value: 9.5 days). Format: functional.
A short description of assay [3]: Antitumor activity against Her2-positive human MDA-MB-231-LM24 cells xenografted in SCID-beige mouse harboring Td-tomato and Luc2 assessed as tumor growth inhibition at 2.5 mg/kg, iv administered every 7 days for 28 days relative to control. The format is functional. The note with it: MDA-MB-231-LM24, iv, read-out: TGI.
In a further assay the test system is MDA-MB-231-LM24. In words: Antimetastatic activity against Her2-positive human MDA-MB-231-LM24 cells xenografted in SCID-beige mouse harboring Luc2 assessed as reduction in tumor burden in lung at 2.5 mg/kg, iv administered every 7 days for 2 weeks by bioluminescence analysis. The format is functional, organism-based.
Assay [4] is described as follows: Antiproliferative activity against human MDA-MB-231-LM24 cells after 48 hrs by MTS assay. Format: functional, cell-based. The conditions noted are these: MDA-MB-231-LM24, 48 h. (Tetrazolium dyes change colour on reduction, which living cells bring about.)

Activity calls are given as the source filed them. The rule behind the calls is not given here.

As for `CO[C@]1(C)OC2=C(O[C@@]1(C)OC)c1nc2nc2[nH]c(nc3nc(nc4[nH]c(n1)c1c4O[C@@](C)(OC)[C@](C)(OC)O1)C1=C3O[C@@](C)(OC)[C@](C)(OC)O1)c1c2O[C@@](C)(OC)[C@](C)(OC)O1`, the outcome in the assay on MDA-MB-231 was inactive.
In the case of `COc1cccc2c1C(=O)c1c(O)c3c(c(O)c1C2=O)C[C@@](O)(C(=O)CO)C[C@@H]3O[C@H]1C[C@H](N)[C@H](O)[C@H](C)O1` [DOXORUBICIN], the Survival was determined as 14 days in assay [1] and 20 days in assay [2].
On to `CO[C@]1(C)OC2=C(O[C@@]1(C)OC)c1nc2nc2[nH]c(nc3nc(nc4[nH]c(n1)c1c4O[C@@](C)(OC)[C@](C)(OC)O1)-c1c(OCCO)ccc(OCCO)c1-3)c1c2O[C@@](C)(OC)[C@](C)(OC)O1`, for which the inhibition in vivo at 2.5 mg/kg in assay [3] was more than 65%. For the same compound, the Survival in assay [1] came out at 22.5 days. The same compound gave an Activity with MDA-MB-231 of 40%. Besides, the result with MDA-MB-231-LM24 was Active. In addition, in assay [4], inhibition was half-maximal at 15 µM (IC50).
